Patent US9034922B2, “Composition for maintaining function of platelets” (THE UNIVERSITY OF TOKYO, priority 2010, dated 2015)

Legend:
[1] = molecular target: T1, TACE expressed on the macrophage-like cells (THP-1) (Homo sapiens, UniProt P78536); assay: Cellular TACE inhibition experiment (LPS-induced TNF-α production in PMA-differentiated THP-1 cells); assay type: cell-based; conditions: for IC50: THP-1 macrophage-like cells, LPS 1 μg/mL, 6 hours, read-out: IC50 TNFα production
T1 construct: host or cells: THP-1 cells differentiated with PMA into macrophage-like cells
T1 sequence (P78536 215-824): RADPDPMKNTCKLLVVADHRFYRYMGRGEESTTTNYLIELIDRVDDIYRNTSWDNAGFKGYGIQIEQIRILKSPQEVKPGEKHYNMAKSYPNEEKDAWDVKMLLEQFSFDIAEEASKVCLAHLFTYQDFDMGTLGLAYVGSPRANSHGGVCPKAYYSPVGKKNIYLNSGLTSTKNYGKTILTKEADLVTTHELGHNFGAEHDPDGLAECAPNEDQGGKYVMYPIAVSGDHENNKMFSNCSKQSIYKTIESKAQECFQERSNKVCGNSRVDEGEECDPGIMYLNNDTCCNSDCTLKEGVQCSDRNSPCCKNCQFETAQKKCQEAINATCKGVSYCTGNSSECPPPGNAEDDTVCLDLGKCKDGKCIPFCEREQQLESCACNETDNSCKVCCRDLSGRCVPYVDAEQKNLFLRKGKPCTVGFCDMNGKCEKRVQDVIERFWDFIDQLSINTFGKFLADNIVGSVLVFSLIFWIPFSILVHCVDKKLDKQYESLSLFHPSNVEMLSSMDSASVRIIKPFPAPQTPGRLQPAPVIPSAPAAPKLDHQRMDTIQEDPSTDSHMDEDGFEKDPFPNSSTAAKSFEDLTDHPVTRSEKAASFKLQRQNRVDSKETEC
Procedure: After the differentiation, the medium was discarded, and the cells were washed with THP-1 washing buffer (RPMI 1640, 20 mM HEPES-NaOH (pH 7.4)). After the washing of the cells, a THP-1 assay buffer (RPMI 1640, 20 mmol/L HEPES-NaOH (pH 7.4), 0.01 w/v % PF-68, 10 v/v % FBS) was added thereto at 100 μL/well. Then, a THP-1 assay buffer containing the test substance (I-1 or 1-4) was further added at 50 μL/well and mixed by tapping. After incubation in a CO2 incubator for 30 to 45 minutes, a THP-1 assay buffer containing LPS was added at 50 μL/well (the final concentration of LPS was 1 μg/mL). Further, the plate was tapped for mixing, followed by incubation in the CO2 incubator for 6 hours. After the incubation was finished, human TNF-α concentration in the culture supernatant was measured with a commercially available kit (Human TNF-α CytoSet (manufactured by BIOSOURCE) or Human TNF-α Ready-Set-Go! (manufactured by eBioscience, Inc.)).

[2] = tested on: iPS cell-derived platelets (ADAM17-mediated GPIbα shedding); assay: Function-maintaining effect on iPS cell-derived platelets in culture system (flow cytometry CD41/CD42b, platelet count); assay type: cell-based, human; conditions: Test Example 7, 8 days
From the text: As human iPS cells (hiPS cells), an iPS cell line (TkDA3-4) established at the University of Tokyo by introducing Oct4, Klf4, Sox2, and c-Myc into human-derived skin cells was also used). […] The cells were subcultured for every 3 days, and those keeping an undifferentiated state were used.
Thereby, megakaryocytes/platelets were induced.

[3] = tested on: human platelets in laser/hematoporphyrin-induced thrombus formation; assay: Thrombus formation model in NOG mice with biomolecular imaging (injected human platelets); assay type: in vivo, mouse; conditions: Test Example 16; platelets prepared with 15 μM S-45457 and 100 μM CCCP, 37° C., 24 hours, injected into NOG mice
Procedure: The maintaining effect of the compound (such as S-45457) according to the present invention on the adhesion ability of platelets, particularly adhesion ability of platelets to a blood vessel in vivo, was evaluated using a biomolecular imaging technique and a thrombus formation model developed by the present inventors.
Note that the thrombus formation model used in this Test Example induces thrombus formation as follows. Specifically, reactive oxygen species (ROS) are generated locally in a blood vessel by using laser irradiation along with hematoporphyrin, and so forth. This gives damage to vascular endothelial cells, and thereby platelets adhere to the blood vessel, so that a thrombus is formed. […]
First, platelets were prepared for injection into mice used as a model of thrombus formation. […] After the incubation (in the case of the positive control, without incubation), the number of platelets in the precipitate was counted. […] The suspension was then incubated at room temperature for 15 minutes to label the platelets with fluorescence. […]
Next, the thrombus formation model mouse was prepared. […] Then, platelets labelled with fluorescence as described above were injected into the NOG mouse so that the number of the platelets was 15% of the number of circulating platelets. […]

Row | Structure (SMILES) | inhibitory activity on TACE expressed on the macrophage-like cells (in words) [1] | IC50 [1] | toxicity to cells (total number of platelets) ([2]; iPS cells and differentiated cells, 1.5 to 50 μM) | concentration dependency of inhibition of GPIbα shedding ([2]; iPS cells, S-45457 1.5 to 50 μM) | percentage of the human-derived platelets contributing to the thrombus formation [3]
1 | CC#CCOc1ccc(S(=O)(=O)CC(c2ccc(CN(CC)CC)cc2)N(O)C=O)cc1 (stereo not shown) [Compound I-1, N-[2-(4-But-2-ynyloxybenzenesulfonyl)-1-(4-diethylaminomethylphenyl)ethyl]-N-hydroxyformamide] | inhibitory activity was confirmed | 1200 nM |  |  | 
2 | CC#CCOc1ccc(S(=O)(=O)CC(c2ccc(CNS(C)(=O)=O)cc2)N(O)C=O)cc1 (stereo not shown) [Compound I-4, N-{4-[2-(4-But-2-ynyloxybenzenesulfonyl)-1-(formylhydroxyamino)ethyl]benzyl}methanesulfonamide] | inhibitory activity was confirmed | 625 nM | low toxicity | inhibit ADAM17-mediated GPIbα shedding in a manner dependent on the added concentration | higher than that of the negative control
